Assay results from PubChem BioAssay AID298 (DTP/NCI, 2004).
“And” between values parts separate entries of the source, which are not always exact repeats. Equal values may be shown once. Results filed as inconclusive are left out.

Tested on: MX-1 breast xenograft, intrarenal, nude mice, tumor weight
Assay: NCI In Vivo Anticancer Drug Screen. Data for tumor model Human Mammary Carcinoma MX-1 Xenograft (intrarenal inoculation) in NU/NU BALB/C (nude) mice
Details: endpoint: mean tumor weight change, higher = larger tumour
Method in brief: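 T/C readout: treated-group measurement over vehicle-control measurement, using tumor size or survival in tumor-bearing mice.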

[1] = dose: 200.0 mg/kg/injection, schedule: Q01DX010 (sc), vehicle: Klucel (hydroxypropylcellulose) (HPC)
[2] = dose: 400.0 mg/kg/injection, schedule: Q01DX010 (sc), vehicle: Klucel (hydroxypropylcellulose) (HPC)
[3] = dose: 600.0 mg/kg/injection, schedule: Q04DX003 (sc), vehicle: Klucel (hydroxypropylcellulose) (HPC)
[4] = dose: 1200.0 mg/kg/injection, schedule: Q04DX003 (sc), vehicle: Klucel (hydroxypropylcellulose) (HPC)
[5] = dose: 2400.0 mg/kg/injection, schedule: Q04DX003 (sc), vehicle: Klucel (hydroxypropylcellulose) (HPC)
[6] = dose: 150.0 mg/kg/injection, schedule: Q04DX003 (ip), vehicle: DMSO
[7] = dose: 300.0 mg/kg/injection, schedule: Q04DX003 (ip), vehicle: DMSO
[8] = dose: 600.0 mg/kg/injection, schedule: Q04DX003 (ip), vehicle: DMSO

## CN(C)[C@@H]1C(=O)C(C(N)=O)=C(O)[C@@]2(O)C(=O)C3=C(O)c4c(O)ccc(Cl)c4[C@@](C)(O)[C@H]3C[C@@H]12
dose: 300.0 mg/kg/injection, schedule: Q04DX003 (sc), vehicle: saline
  T/C: 155 % of control
dose: 1200.0 mg/kg/injection, schedule: Q04DX003 (sc), vehicle: saline
  T/C: 113 % of control
dose: 2400.0 mg/kg/injection, schedule: Q04DX003 (sc), vehicle: saline
  T/C: 70 % of control

## O=C(NO)c1ccccc1
dose: 100.0 mg/kg/injection, schedule: Q01DX010 (sc), vehicle: Klucel (hydroxypropylcellulose) (HPC)
  T/C: 89 % of control
[1]
  T/C: 61 % of control
[2]
  T/C: 21 % of control

## C[n+]1c(-c2ccc(/C=N/NC(=O)c3ccc(C(=O)N/N=C/c4ccc(-c5cn6ccccc6[n+]5C)cc4)cc3)cc2)cn2ccccc21
dose: 75.0 mg/kg/injection, schedule: Q04DX003 (ip), vehicle: saline with Tween-80
  T/C: 92 % of control
dose: 150.0 mg/kg/injection, schedule: Q04DX003 (ip), vehicle: saline with Tween-80
  T/C: 56 % of control
dose: 300.0 mg/kg/injection, schedule: Q04DX003 (ip), vehicle: saline with Tween-80
  T/C: 65 % of control
dose: 600.0 mg/kg/injection, schedule: Q04DX003 (ip), vehicle: saline with Tween-80
  T/C: 69 % of control

## O=c1n(CC2CO2)c(=O)n(CC2CO2)c(=O)n1CC1CO1 (stereo unspecified)
dose: 25.0 mg/kg/injection, schedule: Q01DX010 (sc), vehicle: saline
  T/C: 37 % of control
dose: 25.0 mg/kg/injection, schedule: Q04DX003 (sc), vehicle: suspension in saline
  T/C: 18 % of control
dose: 50.0 mg/kg/injection, schedule: Q04DX003 (sc), vehicle: suspension in saline
  T/C: -100 % of control

## CN(C)/N=N/c1nc[nH]c1C(N)=O
dose: 50.0 mg/kg/injection, schedule: Q04DX003 (ip), vehicle: Klucel (hydroxypropylcellulose) (HPC)
  T/C: 74 % of control
dose: 75.0 mg/kg/injection, schedule: Q04DX003 (ip), vehicle: Klucel (hydroxypropylcellulose) (HPC)
  T/C: 87 % of control
dose: 112.0 mg/kg/injection, schedule: Q04DX003 (ip), vehicle: Klucel (hydroxypropylcellulose) (HPC)
  T/C: 82 % of control
[1]
  T/C: 70 % of control
[2]
  T/C: 14 % of control

## CS(=O)(=O)c1ncc(Br)cn1
dose: 25.0 mg/kg/injection, schedule: Q01DX010 (sc), vehicle: distilled water + Tween-80
  T/C: 98 % of control
dose: 200.0 mg/kg/injection, schedule: Q01DX010 (sc), vehicle: distilled water + Tween-80
  T/C: 118 % of control

## CC1=C/C(O)CC(=O)Cc2nc(co2)C(=O)N2CCC=C2C(=O)OC(C(C)C)C(C)/C=C\C(=O)NC/C=C\1 (stereo unspecified)
[3]
  T/C: 104 % of control
[4]
  T/C: 92 % of control
[5]
  T/C: 88 % of control

## OCCN1CCN(CC/C=C2/c3ccccc3Sc3ccc(C(F)(F)F)cc32)CC1
dose: 30.0 mg/kg/injection, schedule: Q04DX003 (sc), vehicle: saline
  T/C: 65 % of control
dose: 60.0 mg/kg/injection, schedule: Q04DX003 (sc), vehicle: saline
  T/C: 43 % of control and 44 % of control
dose: 120.0 mg/kg/injection, schedule: Q04DX003 (sc), vehicle: saline
  T/C: 11 % of control and 33 % of control

## Nc1ccc(S(=O)(=O)Nc2cnc3c(Cl)cccc3n2)cc1
[6]
  T/C: 103 % of control
[7]
  T/C: 49 % of control
[8]
  T/C: 75 % of control

## CC(CNC(=O)C12CC3CC(CC(C3)C1)C2)NC(=O)C12CC3CC(CC(C3)C1)C2 (stereo unspecified)
dose: 75.0 mg/kg/injection, schedule: Q04DX003 (ip), vehicle: DMSO
  T/C: 82 % of control
[6]
  T/C: 95 % of control
[7]
  T/C: 106 % of control
[8]
  T/C: 105 % of control

## NC(CCl)=NCC12CC3CC(CC(C3)C1)C2
dose: 37.5 mg/kg/injection, schedule: Q04DX003 (sc), vehicle: Klucel (hydroxypropylcellulose) (HPC)
  T/C: 102 % of control
dose: 75.0 mg/kg/injection, schedule: Q04DX003 (sc), vehicle: Klucel (hydroxypropylcellulose) (HPC)
  T/C: 104 % of control

## COc1cc(C2c3cc4c(cc3[C@@H](OC3OC5CO[C@@H](C)OC5C(O)C3O)[C@H]3COC(=O)C23)OCO4)cc(OC)c1OC (stereo partly specified)
dose: 25.0 mg/kg/injection, schedule: Q04DX003 (ip), vehicle: saline
  T/C: 88 % of control
dose: 50.0 mg/kg/injection, schedule: Q04DX003 (ip), vehicle: saline
  T/C: 84 % of control
dose: 100.0 mg/kg/injection, schedule: Q04DX003 (ip), vehicle: saline
  T/C: 55 % of control
dose: 200.0 mg/kg/injection, schedule: Q04DX003 (ip), vehicle: saline
  T/C: 61 % of control
dose: 400.0 mg/kg/injection, schedule: Q04DX003 (ip), vehicle: saline
  T/C: 32 % of control

## O=C1C=C2C(=CCOC2O)O1 (stereo unspecified)
dose: 1.0 mg/kg/injection, schedule: Q04DX003 (sc), vehicle: Klucel (hydroxypropylcellulose) (HPC)
  T/C: 87 % of control
dose: 2.0 mg/kg/injection, schedule: Q04DX003 (sc), vehicle: Klucel (hydroxypropylcellulose) (HPC)
  T/C: 79 % of control
dose: 4.0 mg/kg/injection, schedule: Q04DX003 (sc), vehicle: Klucel (hydroxypropylcellulose) (HPC)
  T/C: 59 % of control

## N[C@@H](Cc1ccc(N(CCCl)CCCl)cc1)C(=O)O
dose: 1.0 mg/kg/injection, schedule: Q01DX010 (sc), vehicle: saline
  T/C: 1 % of control and 3 % of control
dose: 1.0 mg/kg/injection, schedule: Q04DX003 (sc), vehicle: saline
  T/C: 88 % of control
dose: 1.5 mg/kg/injection, schedule: Q04DX003 (sc), vehicle: saline
  T/C: 49 % of control
dose: 2.0 mg/kg/injection, schedule: Q01DX010 (sc), vehicle: saline
  T/C: -85 % of control and -79 % of control
dose: 2.0 mg/kg/injection, schedule: Q04DX003 (ip), vehicle: saline with Tween-80
  T/C: -48 % of control and -38 % of control
dose: 2.0 mg/kg/injection, schedule: Q04DX003 (sc), vehicle: saline
  T/C: 17 % of control
dose: 3.0 mg/kg/injection, schedule: Q04DX003 (sc), vehicle: saline
  T/C: 3 % of control
dose: 4.0 mg/kg/injection, schedule: Q01DX010 (sc), vehicle: saline
  T/C: -92 % of control and -70 % of control
dose: 4.0 mg/kg/injection, schedule: Q04DX003 (ip), vehicle: saline with Tween-80
  T/C: -94 % of control and -93 % of control
dose: 4.0 mg/kg/injection, schedule: Q04DX003 (sc), vehicle: saline
  T/C: -9 % of control
dose: 6.0 mg/kg/injection, schedule: Q04DX003 (sc), vehicle: saline
  T/C: -87 % of control
dose: 8.0 mg/kg/injection, schedule: Q01DX010 (sc), vehicle: saline
  T/C: -87 % of control
dose: 8.0 mg/kg/injection, schedule: Q04DX003 (ip), vehicle: saline with Tween-80
  T/C: -100 % of control and -99 % of control
dose: 8.0 mg/kg/injection, schedule: Q04DX003 (sc), vehicle: saline
  T/C: -89 % of control
dose: 12.0 mg/kg/injection, schedule: Q04DX003 (sc), vehicle: saline
  T/C: -96 % of control

## O=C1CC2(C(=O)N1CN1CCOCC1)c1ccccc1-c1ccccc12
dose: 300.0 mg/kg/injection, schedule: Q04DX003 (ip), vehicle: Klucel (hydroxypropylcellulose) (HPC)
  T/C: 97 % of control
dose: 600.0 mg/kg/injection, schedule: Q04DX003 (ip), vehicle: Klucel (hydroxypropylcellulose) (HPC)
  T/C: 72 % of control

## COc1ccc2ccccc2c1C1NC(=O)c2ccccc2N1 (stereo unspecified)
dose: 300.0 mg/kg/injection, schedule: Q04DX003 (sc), vehicle: Klucel (hydroxypropylcellulose) (HPC)
  T/C: 79 % of control
[3]
  T/C: 104 % of control
[4]
  T/C: 90 % of control
[5]
  T/C: 63 % of control

## COc1ccc(-c2cc(C(=O)Nc3cc(C(F)(F)F)cc(C(F)(F)F)c3)c3ccccc3n2)cc1
[6]
  T/C: 103 % of control
[7]
  T/C: 70 % of control
[8]
  T/C: 78 % of control

## CC1=C[P+](c2ccccc2)(c2ccccc2)C=C(c2ccccc2)O1
dose: 0.75 mg/kg/injection, schedule: Q04DX003 (ip), vehicle: saline
  T/C: 124 % of control

## COc1cccc2c1[C@H]1CO[C@H]3C4C[C@H](C(=O)O)C([C@@H](C2)N13)N4C (stereo partly specified)
dose: 1.25 mg/kg/injection, schedule: Q04DX003 (ip), vehicle: other
  T/C: 50 % of control
dose: 2.5 mg/kg/injection, schedule: Q04DX003 (ip), vehicle: other
  T/C: 32 % of control and 33 % of control
dose: 5.0 mg/kg/injection, schedule: Q04DX003 (ip), vehicle: other
  T/C: 16 % of control and 19 % of control
dose: 7.5 mg/kg/injection, schedule: Q04DX003 (ip), vehicle: water
  T/C: 9 % of control
dose: 10.0 mg/kg/injection, schedule: Q04DX003 (ip), vehicle: other
  T/C: 8 % of control and 9 % of control
dose: 15.0 mg/kg/injection, schedule: Q04DX003 (ip), vehicle: water
  T/C: 2 % of control
dose: 20.0 mg/kg/injection, schedule: Q04DX003 (ip), vehicle: other
  T/C: 2 % of control
dose: 30.0 mg/kg/injection, schedule: Q04DX003 (ip), vehicle: water
  T/C: 2 % of control
